PMC6791321, “CD23 is a glycan-binding receptor in some mammalian species” (The Journal of Biological Chemistry, 2019)

Assays:
Assay type in all cases: binding
[1] = target: T1, mouse CD23 CRD (Mus musculus, UniProt P20693); test: solid-phase competition with horseradish peroxidase reporter, immobilized biotin-tagged CRD; conditions: pH 7.8, 2.5 mM CaCl2, 150 mM NaCl, 4 °C, competitive, KI approximates KD
T1 construct: gene Fcer2
T1 sequence (P20693 185-298 limits assumed): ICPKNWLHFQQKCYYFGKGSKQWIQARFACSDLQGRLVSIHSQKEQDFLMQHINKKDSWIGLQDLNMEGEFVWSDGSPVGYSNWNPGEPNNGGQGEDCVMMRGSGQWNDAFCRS

[2] = target: T2, cow CD23 CRD (Bos taurus, UniProt E1BIQ4); test: as above; conditions: pH 7.8, 2.5 mM CaCl2, 150 mM NaCl, 4 °C, competitive, KI approximates KD
T2 construct: gene FCER2; untagged for crystals; C-terminal biotinylation tag LNDIFEAQKIEWHE for solid-phase assays
T2 sequence (E1BIQ4 169-302): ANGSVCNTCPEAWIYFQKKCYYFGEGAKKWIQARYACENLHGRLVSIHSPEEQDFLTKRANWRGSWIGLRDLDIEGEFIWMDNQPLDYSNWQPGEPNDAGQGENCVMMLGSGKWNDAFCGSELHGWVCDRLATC
Text: solid-phase competition with horseradish peroxidase reporter, immobilized biotin-tagged CRD on cow CD23 CRD | The three monosaccharides with highest affinity are mannose, fucose, and GlcNAc

[3] = target: T2, cow CD23 CRD; test: as above; conditions: pH 7.8, 2.5 mM CaCl2, 150 mM NaCl, 4 °C; competitive
[4] = target: T2, cow CD23 CRD; test: solid-phase competition with horseradish peroxidase reporter, immobilized biotin-tagged CRD; also crystal structure at […] Å (untagged CRD)
[5] = may have been tested as methyl glycoside

Compound | Ki [1] [µM] | Ki [2] [µM] | other results
CC(=O)N[C@H]1[C@H](O[C@H]2[C@H](O)[C@@H](NC(C)=O)C(O)O[C@@H]2CO)O[C@H](CO)[C@@H](O[C@@H]2O[C@H](CO[C@H]3O[C@H](CO[C@H]4O[C@H](CO)[C@@H](O)[C@H](O)[C@@H]4O[C@H]4O[C@H](CO)[C@@H](O)[C@H](O)[C@@H]4O)[C@@H](O)[C@H](O[C@H]4O[C@H](CO)[C@@H](O)[C@H](O)[C@@H]4O[C@H]4O[C@H](CO)[C@@H](O)[C@H](O)[C@@H]4O)[C@@H]3O)[C@@H](O)[C@H](O[C@H]3O[C@H](CO)[C@@H](O)[C@H](O)[C@@H]3O[C@H]3O[C@H](CO)[C@@H](O)[C@H](O)[C@@H]3O[C@H]3O[C@H](CO)[C@@H](O)[C@H](O)[C@@H]3O)[C@@H]2O)[C@@H]1O (some centres unmarked) [Man9GlcNAc2] |  |  | ratio of affinities relative to α-methyl mannoside [3]: 240 ± 50 fold
C[C@@H]1OC(O)[C@@H](O)[C@H](O)[C@@H]1O (some centres unmarked) [fucose] |  |  | Ki [1, 5]: 8400 µM; Ki [2, 5]: 1800 µM
CO[C@H]1O[C@H](CO)[C@@H](O)[C@H](O)[C@@H]1O [α-methyl mannoside] |  |  | Ki [4]: 1600 µM

The next lines start with results.

Ki [1] [µM] | Ki [2] [µM] | Compound | other results
5200 | 1100 | CC(=O)N[C@H]1C(O)O[C@H](CO)[C@@H](O)[C@@H]1O (some centres unmarked) [GlcNAc] | 
5700 | 1600 | OC[C@H]1OC(O)[C@@H](O)[C@@H](O)[C@@H]1O (some centres unmarked) [mannose] | 
